Measured values as given in ChEMBL document CHEMBL1129937, “Synthesis and dihydrofolate reductase inhibitory activities of 2,4-diamino-5-deaza and 2,4-diamino-5,10-dideaza lipophilic antifolates” (J Med Chem, 1997).

Legend:
Dihydrofolate reductase [1] = biological target: T1, Dihydrofolate reductase (Pneumocystis carinii, UniProt P16184)
T1 sequence (P16184 whole entry): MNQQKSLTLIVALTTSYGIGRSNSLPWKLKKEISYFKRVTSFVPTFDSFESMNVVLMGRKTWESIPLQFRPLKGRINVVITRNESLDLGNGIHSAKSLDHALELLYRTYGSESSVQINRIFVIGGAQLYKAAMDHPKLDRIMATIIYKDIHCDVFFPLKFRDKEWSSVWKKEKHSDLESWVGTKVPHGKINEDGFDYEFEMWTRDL
Description: Inhibitory concentration against Dihydrofolate reductase from Pneumocystis carinii (pc)

Dihydrofolate reductase [2] = biological target: T2, Dihydrofolate reductase (Rattus norvegicus, UniProt Q920D2)
T2 sequence (Q920D2 whole entry): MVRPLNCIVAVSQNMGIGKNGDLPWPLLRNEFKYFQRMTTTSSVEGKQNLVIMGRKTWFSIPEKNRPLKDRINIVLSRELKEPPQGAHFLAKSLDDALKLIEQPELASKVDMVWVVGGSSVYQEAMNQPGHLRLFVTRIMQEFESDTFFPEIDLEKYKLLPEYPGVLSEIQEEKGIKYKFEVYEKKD
Description: Inhibitory concentration against Dihydrofolate reductase from Rat liver (rl)

[3] = biological target: T3, Bifunctional dihydrofolate reductase-thymidylate synthase (Toxoplasma gondii, UniProt Q07422)
T3 sequence (Q07422 whole entry): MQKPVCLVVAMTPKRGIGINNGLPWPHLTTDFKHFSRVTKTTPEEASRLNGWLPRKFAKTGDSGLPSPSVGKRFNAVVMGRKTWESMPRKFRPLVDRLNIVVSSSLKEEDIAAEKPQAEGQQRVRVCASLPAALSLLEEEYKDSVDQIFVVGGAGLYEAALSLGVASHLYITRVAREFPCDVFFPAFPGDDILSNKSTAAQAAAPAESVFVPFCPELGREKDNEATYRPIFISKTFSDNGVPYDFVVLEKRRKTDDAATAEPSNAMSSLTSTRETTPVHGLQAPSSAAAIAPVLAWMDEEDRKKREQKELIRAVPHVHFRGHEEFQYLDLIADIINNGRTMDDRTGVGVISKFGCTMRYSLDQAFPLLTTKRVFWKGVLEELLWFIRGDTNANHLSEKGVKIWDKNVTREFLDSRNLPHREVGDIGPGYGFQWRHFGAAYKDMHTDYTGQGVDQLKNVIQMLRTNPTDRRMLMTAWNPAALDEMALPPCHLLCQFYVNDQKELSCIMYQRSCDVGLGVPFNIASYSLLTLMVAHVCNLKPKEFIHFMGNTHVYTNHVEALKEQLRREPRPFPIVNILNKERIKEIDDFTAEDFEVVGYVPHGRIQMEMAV
Description: Inhibitory concentration against Dihydrofolate reductase from Toxoplasma gondii (tg)

| SMILES | IC50 (Dihydrofolate reductase [1]) [nM] | IC50 (Dihydrofolate reductase [2]) [nM] | IC50 [3] [nM] |
| --- | --- | --- | --- |
| COc1ccc(CCc2cnc3nc(N)nc(N)c3c2)cc1OC | 1400 | 610 | 200 |
| COc1cc(CCc2cnc3nc(N)nc(N)c3c2)cc(OC)c1OC |  | 1140 | 200 |
| COc1cc(N(C=O)Cc2cnc3nc(N)nc(N)c3c2)cc(OC)c1OC | 18500 | 7400 | 1100 |
| COc1ccc(CCC2CNc3nc(N)nc(N)c3C2)cc1OC (stereo unspecified) |  | 2100 | 1100 |
| COc1cc(NCc2cnc3nc(N)nc(N)c3c2)cc(OC)c1OC |  | 1900 | 300 |
| COc1ccc(/C=C/c2cnc3nc(N)nc(N)c3c2)cc1 | 5300 | 11800 | 1500 |
| COc1cc(/C=C/c2cnc3nc(N)nc(N)c3c2)cc(OC)c1OC | > 5000 | 12900 | 1400 |
| COc1cc(N(C)Cc2cnc3nc(N)nc(N)c3c2)cc(OC)c1OC |  | 280 |  |
| CCN(Cc1cnc2nc(N)nc(N)c2c1)c1cc(OC)c(OC)c(OC)c1 | 190 | 120 | 49 |
| COc1cc(CCC2CNc3nc(N)nc(N)c3C2)cc(OC)c1OC (stereo unspecified) | 61700 | 6100 | 470 |
| COc1ccc(CCc2cnc3nc(N)nc(N)c3c2)cc1 | 290 | 260 | 250 |
| COc1ccc(/C=C/c2cnc3nc(N)nc(N)c3c2)cc1OC | 2600 | 2100 | 1400 |
